Experimental data published in PMC11903690 (Scientific Reports, 2025).

What was measured:
[1] = system: SARS-CoV-2 (WK-521, ancestral strain); test: SARS-CoV-2 inhibition MTT assay in Vero E6/TMPRSS2 cells; assay type: cell-based; conditions: for EC50: Severe acute respiratory syndrome coronavirus 2, VeroE6/TMPRSS2; for Selectivity index: between EC50 and CC50, WK-521, Vero E6/TMPRSS2 cells
[2] = system: SARS-CoV-2 mediated cell-to-cell fusion; assay type: cell-based; conditions: 0.8 to 25 μM; 24 h
[3] = system: sphingomyelin on the plasma membrane in Vero E6 cells; assay type: cell-based; conditions: 5 μM, 30 min, versus control (DMSO)
[4] = system: high fat diet-induced obesity mice models; conditions: oral intake; cited from earlier work
in vitro = conditions: African green monkey

| Compound | EC50 [1] [µM] | Selectivity index [1] | inhibition of cell fusion (yellow hypertrophic cells) [2] | fluorescence intensity of EGFP-NT-Lys on the plasma membrane (clustered SM) [3] | fluorescence intensity of EqtII-EGFP (dispersed SM) [3] | efficacies in high fat diet-induced obesity mice [4] | CC50 (in vitro) [µM] |
| --- | --- | --- | --- | --- | --- | --- | --- |
| O=C(CCCCCCCCc1ccc(O)c(O)c1)c1c(O)cccc1O [Compound 1, Malabaricone C] | 1.5 | 9.7 | increased in a dose-dependent manner | lower than that of the control | almost no difference | reducing weight gain, improving glucose tolerance, and reducing hepatic steatosis | 14 |
| CCCCCC/C=C\CCCCCCCc1cccc(O)c1C(=O)O [Ginkgolic acid] | 7.9 | – | – | – | – | – | – |
| CC(C)C(=O)OC[C@H]1O[C@@H](n2ccc(NO)nc2=O)[C@H](O)[C@@H]1O [Molnupiravir] | 0.15 | 33.8 | – | – | – | – | 5.3 |
| CCC(CC)COC(=O)[C@H](C)N[P@](=O)(OC[C@H]1O[C@@](C#N)(c2ccc3c(N)ncnn23)[C@H](O)[C@@H]1O)Oc1ccccc1 [Remdesivir] | 0.5 | – | – | – | – | – | > 10 |
